Test results: patent US6515012B2, “Process for the preparation of zofenopril calcium salt” (Menarini Ricerche S.p.A., priority 1998, dated 2003)
Where a name gives a salt, the structure may show the parent alone.

Key:
[1] = Stability to micronisation of Polymorphs (grinding in ball microniser, DRX); type: physicochemical; details: Retsch MM2 ball microniser, 200 mg sample, 80 vibrations/min, 15 minutes
[2] = resistance to compression and/or micronisation; type: physicochemical; details: polymorph A compared with polymorph B
[3] = tablets prepared with polymorph A or with polymorph B; J. Pharmaceutical & Biomedical Analysis, 1994, Vol 12, pp. 173-177; cited from earlier work
[4] = storage stability of zofenopril calcium salt samples (interconversion to polymorph B, by DRX); type: physicochemical
Text: Determination of polymorph B in the samples of Polymoroh A : The percentage of polymorph B in samples of Polymorph A can easily be evaluated by observation of the X diffractograms (DRX). The region used for the analysis was that for 2θ ranging from 15 to 25. In this region, three peaks were evidenced, respectively I with […], II with 2θ=19.2 and III with 20θ=19.9, and the relative intensities I/III and II/III of various Polymorph A samples containing known amounts of Polymorph B (not above 30%) were measured. A regression equation was thereby obtained, which correlates the intensities of peaks I and II relating to peak III with the percentage of polymorph B present in the samples. The precision and the accuracy of the results obtainable with the above mentioned equation were good and, based on the confidence limits, the minimum amount of polymorph B detectable in polymorph A could be evaluated to be <7%. FIG. 4 reports the relationship between the above mentioned values based on the thus calculated regression equation and the observed values.

C[C@H](CSC(=O)c1ccccc1)C(=O)N1C[C@@H](Sc2ccccc2)C[C@H]1C(=O)O [polymorph A]
crystalline structure after grinding, according to DRX [1]: still keeps the crystalline structure | resistance to compression and/or micronisation [2]: more resistant to compression and/or micronisation than polymorph B | dissolution rate of tablets [3]: could not be differentiated

C[C@H](CSC(=O)c1ccccc1)C(=O)N1C[C@@H](Sc2ccccc2)C[C@H]1C(=O)O [polymorph B]
crystalline structure after grinding, according to DRX [1]: completely loses its crystalline structure | dissolution rate of tablets [3]: could not be differentiated

C[C@H](CSC(=O)c1ccccc1)C(=O)N1C[C@@H](Sc2ccccc2)C[C@H]1C(=O)O [zofenopril calcium salt, [(4S)-(2S)-3-(benzoylthio)-2-methylpropionyl-4 (phenylthio)-L-proline] calcium salt]
interconversion to polymorph B ([4]; samples obtained according to the process of the invention): no interconversion to polymorph B | percentage of polymorph B after storage ([4]; stored for 3 years at 25° C. and 60% relative humidity): below 7% | percentage of polymorph B after storage ([4]; stored for 6 months at 40° C. and 75% relative humidity): below 7%
